Assays:
Details in all cases: 48 h
[1] = tested on: CU-ACC1; assay: AC50 viability; higher = less potent
How it was run: (§1)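 Three adrenocortical carcinoma cell lines were plated in 1,536-well plates at 500–1,000 cells/well in 5 µL medium, and 23 nL of each library compound was added at 11 concentrations. After 48 h, CellTiter-Glo was applied for 15 minutes at room temperature before luminescence was read. Each plate's signals were normalised to vehicle and empty-well controls. AC50 and area under the curve were taken from fitted concentration-response curves, with only inhibitory or non-responding curve classes retained.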

[2] = tested on: NCI-H295R; assay: AC50 viability; higher = less potent
How it was run: as §1

[3] = tested on: CU-ACC1; assay: area under concentration-response curve (viability) (AUC (a.u.)); higher = less active
How it was run: as §1

[4] = tested on: NCI-H295R; assay: as above
How it was run: as §1

[5] = tested on: CU-ACC2; assay: as above
How it was run: as §1

SMILES	AC50 viability [1] [µM]	AC50 viability [2] [µM]	area under concentration-response curve [3]	area under concentration-response curve [4]	area under concentration-response curve [5]
CCN1CCC(n2cc(CNc3cc(Cl)c4ncc(C#N)c(Nc5ccc(F)c(Cl)c5)c4c3)nn2)CC1	16.6	23.5	456	494	
FC(F)(F)C1=CC=C2C(SCCCCCO\C3=C\O\C(CN4CCOCC4)=C/C3=O)=CC=NC2=C1	8.33	18.6	295	324	
Nc1ccc(F)cc1NC(=O)c1ccc(CNC(=O)/C=C/c2cccnc2)cc1	9.34	8.33	341	433	
C[S+](=O)([O-])CCNCc1ccc(-c2ccc3ncnc(Nc4ccc(OCc5cccc(F)c5)c(Cl)c4)c3c2)o1	23.5	20.9	420	456	
CC(C)Oc1ccc(C(=O)N[C@H](CNC(=O)CN(C)C)Cc2ccc(-c3cn4cccc([C@H](C)O)c4n3)cc2)cc1Cl	16.6	13.2	424	427	
COC(=O)C1=C(C)NC(C)=C(C(=O)OCCN2CCN(C(c3ccccc3)c3ccccc3)CC2)C1c1cccc([N+](=O)[O-])c1.Cl.Cl (stereo unspecified)	20.9	11.8	462	497	
CCC(=O)O[C@@]1([C@@H](C)C[C@H]2[C@@H]3CCC/4=C/C(=O)/C=C\[C@]4(C)[C@@]3(F)[C@@H](O)C[C@]12C)C(=O)CCl	20.9	20.9	475	503	
CCCC\1=C(/CNC(=O)C2=CC(=CC3=C2C=N[N]3C(C)C)C4=CC(=NC=C4)N5CCN(C)CC5)C(=O)NC(=C1)\C	18.6	18.6	478	501	
CCN1CCN(Cc2ccc(NC(=O)c3ccc(C)c(/C=C/c4cnc5[nH]ccc5c4OC)c3)cc2C(F)(F)F)CC1	9.34	7.42	461	471	
CN(C)C(=O)C(CCN1CCC(O)(c2ccc(Cl)cc2)CC1)(c1ccccc1)c1ccccc1	16.6	20.9	506	549	
NC(=O)c1ccc2nc(-c3ccc(C4(N)CCC4)cc3)c(-c3ccccc3)n2n1	18.6	16.6	483	465	
Cc1c(C(=O)NN2CCCCC2)nn(-c2ccc(Cl)cc2Cl)c1-c1ccc(Cl)cc1	20.9	18.6	396	433	
CN1CCN(c2ncc(-c3cc(Cl)cc(Cl)c3Cl)c(N)n2)CC1	14.8	11.8	405	487	
NCCCN([C@H](CC#C)C/1=N/C2=C(C=CC(=C2)Cl)C(=O)N1NC3=CC=CC=C3)C(=O)C4=CC=CC(=C4F)Cl	33.2	20.9	429	484	
NC(=O)c1cccc(-c2cc(Nc3ccc(OC(F)(F)F)cc3)ncn2)c1	16.6	20.9	488	538	
CC(=O)C\1=C(/C)C2=CN=C(NC3=CC=C(C=N3)N4CCNCC4)N=C2N(C5CCCC5)C1=O	16.6	26.3	461	487	
CN(C)CCCNC(=O)c1ccc(-c2cc(O)c3ncccc3c2)cc1	16.6	0.332	376	360	
O=[N+]([O-])c1ccc(O)c2ncccc12	11.8	11.8	482	483	
C[C@@H](NCCCc1cccc(C(F)(F)F)c1)c1cccc2ccccc12	10.5	13.2	467	501	
[2H]C([2H])(Nc1nc(-c2ccccc2C([2H])(C([2H])([2H])[2H])C([2H])([2H])[2H])ncc1C)c1ccc(-n2ccnn2)cc1	16.6	9.34	469	531	
NC(=O)N1CCC(CC(=O)N2CCC([C@H]3c4ncc(Br)cc4CCc4cc(Cl)cc(Br)c43)CC2)CC1	37.2	23.5	440	440	
Cc1cccc(-c2n[nH]cc2-c2ccc(F)c(-c3cnn(CCO)c3)c2)n1	5.25	13.2	284	308	

SMILES	AC50 viability [1] [µM]	AC50 viability [2] [µM]	area under concentration-response curve [3]	area under concentration-response curve [4]	area under concentration-response curve [5]
O=C(Nc1cccnn1)N1CCC(=Cc2cccc(Oc3ccc(C(F)(F)F)cn3)c2)CC1	20.9	20.9	361	445	
Cc1[nH]c(/C=C2\C(=O)Nc3ccc([S+](=O)([O-])N(C)c4cccc(Cl)c4)cc32)c(C)c1C(=O)N1CCN(C)CC1	20.9	33.2	397	491	
O=C1Nc2ccc(Cl)cc2[C@@](C#CC2CC2)(C(F)(F)F)O1	29.5	20.9	471	504	
COc1cc(C(=O)NC2CCN(C)CC2)ccc1Nc1ncc2c(n1)N(C1CCCC1)CCC(=O)N2C(C)C	26.3	23.5	504	538	
Cc1c(-c2ccc(O)cc2)n(Cc2ccc(OCCN3CCCCCC3)cc2)c2ccc(O)cc12	29.5	23.5	496	508	
CCC(CC)C(c1ccc(Nc2nc3ccccc3s2)cc1)n1cncn1 (stereo unspecified)	29.5	20.9	451	474	
O=C(NCCCNc1nc(Nc2ccc(N3CCOCC3)cc2)ncc1C1CC1)C1CCC1	2.63	14.8	379	460	
Cc1ccc(NC(=O)c2ccc(CN3CCN(C)CC3)cc2)cc1Nc1nccc(-c2cccnc2)n1	23.5	20.9	484	469	
COC1=CC=C2[N](CCCN(C)C)C=C(C2=C1)C/3=C(/C(=O)NC3=O)C4=C[NH]C5=C4C=CC=C5	26.3	26.3	514	547	
CN1CCN(CCCN2c3ccccc3Sc3ccc(C(F)(F)F)cc32)CC1	29.5	18.6	441	480	
CN(C)CCCN1c2ccccc2CCc2ccc(Cl)cc21	18.6	23.5	473	535	
CC(C)C[C@H](NC(=O)c1cc2ccccc2s1)C(=O)N1CCN(C(=O)[C@H](CO)N[S+](=O)([O-])c2ccc(Cl)cc2Cl)CC1	16.6	18.6	445	494	
CC(C)n1cnc2c(NCCCCCCNC(=O)OC(C)(C)C)nc(NCCO)nc21	16.6	23.5	414	481	
COc1cc(N2CCN(C)CC2)ccc1Nc1ncc2c(n1)N(C)c1ccccc1C(=O)N2	16.6	23.5	479	492	
NCC1CCN(c2nccc(-c3ccc4ccccc4c3)n2)CC1	23.5	16.6	477	492	
COCc1c(-c2ccc(NC(=O)Nc3cc(C(F)(F)F)ccc3F)c(F)c2)c2c(N)ncnn2c1CN1CCOCC1	8.33	6.61	342	363	
CCOC(CN1C(=O)[C@](CC(=O)Nc2ccc(C)cc2)(NC(=O)Nc2ccc(C)cc2)c2ccccc21)OCC	37.2	29.5	432	537	
Clc1cc(Cl)cc(CNc2ncncc2-c2ccc3c(c2)OCO3)c1	14.8	13.2	412	430	
CC(C)C(=O)Nc1ncc(-c2cc(C(F)F)nn2-c2c(Cl)cccc2Cl)s1	23.5	23.5	472	507	
C[S+](=O)([O-])c1ccc([C@@H](CC2CCCC2)C(=O)Nc2nccs2)cc1	18.6	16.6	379	393	
Cl.Cl.Cl.O[C@@H](COc1cccc2ncccc12)CN1CCN([C@@H]2c3ccccc3[C@@H]3[C@H](c4ccccc42)C3(F)F)CC1	23.5	16.6	515	490	
C[C@@H]\1COC(=N1)\NC2=CC3=C(C=C2)N=CN=C3NC4=CC(=C(OCC5=NC=CS5)C=C4)Cl	20.9	41.7	509	522	

SMILES	AC50 viability [1] [µM]	AC50 viability [2] [µM]	area under concentration-response curve [3]	area under concentration-response curve [4]	area under concentration-response curve [5]
Cc1c(CN2CCN(C(=O)[C@H](C)O)CC2)sc2c(N3CCOCC3)nc(-c3cnc(N)nc3)nc12	0.0295	2.09	215	210	
FC1=C(C=C(C/C2=N/NC(=O)C3=C2C=CC=C3)C=C1)C(=O)N4CCN(CC4)C(=O)C5CC5	10.5		456	434	464
COc1ccc2cc3[n+](cc2c1OC)CCc1cc2c(cc1-3)OCO2	4.68		444	557	573
COc1ccc(Cl)c(Nc2ncnc3cc(OCC4CCN(C)CC4)c(OC)cc23)c1	23.5	26.3	513	581	
N=C(N)Nc1ccc(C(=O)Oc2ccc3cc(C(=N)N)ccc3c2)cc1	33.2		460	532	585
CC(C)(C)OC(=O)Nc1ccc(-c2cc(C(=O)NCCCCCCC(=O)NO)no2)cc1	14.8		479	564	598
ClC1=CC=C(CCCOC/2=N/NC(=O)C(=C2NCC3=CN=CC=C3)/Br)C=C1	3.72	10.5	358	457	
CCOCOC[C@H](C[C@H](C)C(=O)NO)NC(=O)c1ccc(Oc2ccccc2)cc1	23.5		512	595	636
Cc1ccc(F)c(NC(=O)Nc2ccc(-c3cccc4[nH]nc(N)c34)cc2)c1	18.6	26.3	497	506	
S=C(NCc1ccc2c(c1)OCO2)N1CCN(c2ncnc3c2oc2ccccc23)CC1	2.95		383	483	567
C/C(=C\C(=O)Nc1ccccc1C(=O)O)c1ccc2ccccc2c1	7.42	18.6	451	449	
CCN1C(=O)N\2CC3=CC(=CC(=C3[C@@H](C)\C=C2C14CCN(CC4)CC5=CC(=CC(=C5)C)C)OC)OC	37.2	18.6	426	514	
Cc1c(C(=O)Nc2ccc(N3C[C@@H](C)O[C@@H](C)C3)nc2)cccc1-c1ccc(OC(F)(F)F)cc1	18.6	20.9	519	572	
CC[C@H](C)[N]1C=C(C)C2=C1C=C(C=C2C(=O)NC\C3=C(C)\C=C(\C)NC3=O)C4=CC=C(N=C4)N5CCNCC5	18.6	23.5	449	493	
CCCn1c(=O)c2[nH]c(C34CC5CC3C[C@@H](C5)C4)nc2n(CCC)c1=O	26.3		435	489	524
CN(CC#C)C/C1=C/C2=CC=CC=C2OC3=CC=CC=C13	33.2		419	546	524
Cc1nc2cnc3ccc(C#Cc4cccnc4)cc3c2n1-c1ccc(C(C)(C)C#N)cc1	0.661		402	492	557
O=C(NOCCO)c1ccc2cncn2c1Nc1ccc(I)cc1F	14.8		461	549	598
O=C(C(c1ccccc1)c1ccccc1)N1CCN(CC(O)COc2cccc3ncccc23)CC1 (stereo unspecified)	23.5	16.6	467	524	
COC1=CC2=C(C=C1OC)[C@H]3[C@@H](CO2)OC4=C(C=CC5=C4\C=C/C(C)(C)O5)C3=O	0.372	16.6	342	510	
